The record followed here is the OligoGym collection.

This data set addresses APOL1. The note with it: ASO.

Several values for one entry are separate records, joined by “and”; a condition that tells them apart may be missing. Equal values may be shown once. After the bases stand the sugars from the 5' end (letter, count) and the backbone: PS all phosphorothioate, else s phosphorothioate and o phosphodiester by linkage. Methylation of C is not given here. e = 2'-O-(2-methoxyethyl) (MOE); k = constrained ethyl (cEt); d = 2'-deoxy (DNA)

In turn, “CTGTTCTAACTCTTGG (sugars kkddddkekekddddd, PS)” gave a target mRNA inhibition (A431, 2 µM) of 88%.

In turn, “GCTAATTTTCTGACTG (sugars kkddddekekeddddd, PS)” displayed a target mRNA inhibition (A431, 2 µM) of 88%.

Regarding AACATTGAAACACCAG (sugars k4 d9 k3, PS), the target mRNA inhibition is, setting by setting: (A431, 0.0625 µM) 35%; (A431, 0.25 µM) 71%; (A431, 1 µM) 89%.

Sequence “AGATTGGCTCTGGCTC (sugars kddddkekekeddddd, PS)” returned a target mRNA inhibition (A431, 2 µM) of 23%.

Consider “CAGTTTTGTAAGTGCA (sugars kkkddddkdkdkdddd, PS)”, for which the target mRNA inhibition by setting is: (A431, 0.04 µM) 57% and 50%; (A431, 1 µM) 92%; (A431, 2 µM) 93%.

ACTGTTCTAACTCTTG (sugars k4 d9 k3, PS): the target mRNA inhibition was found to be 85% (A431, 0.0625 µM); 92% (A431, 0.25 µM); 95% (A431, 1 µM).

As to “GCAATGCTGACTTGGC (sugars kddddkekekeddddd, PS)”, under “A431, 2 µM”, the target mRNA inhibition is 45%.

For the setting “A431, 2 µM”, “GGGAATTATGGAATTG (sugars k3 d4 k3 e1 d5, PS)” displayed a target mRNA inhibition of 77%.

“CGTCAATATATTCTTT (sugars kkddddkekekddddd, PS)”: the target mRNA inhibition runs as follows: (A431, 0.0156 µM) 20%; (A431, 0.0625 µM) 41%; (A431, 0.25 µM) 75%; (A431, 1 µM) 90%; (A431, 2 µM) 94%.

Regarding GCTTTAAACTCAGGTG (sugars k4 d9 k3, PS), the target mRNA inhibition by setting is: (A431, 0.04 µM) 11%; (A431, 0.25 µM) 76% and 79%; (A431, 1 µM) 91% and 89% and 82%.

“GGAATTATGGAATTGC (sugars kekddddeekkddddd, PS)”: the target mRNA inhibition was found to be 23% (A431, 0.0156 µM); 63% (A431, 0.0625 µM); 90% (A431, 0.25 µM); 97% (A431, 1 µM); 98% (A431, 2 µM).

With “GGGTTATGAAATTATT (sugars k2 d4 e3 k2 d5, PS)”, the target mRNA inhibition (A431, 2 µM) came out at 77%.

On to “GAAGATTGGCTCTGGC (sugars kkkddddkekeddddd, PS)”, for which the target mRNA inhibition (A431, 2 µM) worked out at 75%.

“GTATTTCTTGATGTGG (sugars kkkddddkekeddddd, PS)”: the target mRNA inhibition is, setting by setting: (A431, 0.0156 µM) 50%; (A431, 0.0625 µM) 80%; (A431, 0.25 µM) 96%; (A431, 1 µM) 97%; (A431, 2 µM) 98%.

On to “GTATTTCTTGATGTGG (sugars kkddddkdkdkddddd, PS)”, for which the target mRNA inhibition (A431, 2 µM) stood at 87%.

The sequence TTTCATATTCACCCGA (sugars k4 d9 k3, PS) had a target mRNA inhibition (A431, 0.0625 µM) of 46%; a target mRNA inhibition (A431, 0.25 µM) of 68%; a target mRNA inhibition (A431, 1 µM) of 86%.

In turn, “AGCTTTAAACTCAGGT (sugars kkddddkekekkdddd, PS)” yielded a target mRNA inhibition (A431, 2 µM) of 16%.

Consider TGTTATATTTGATCCT (sugars k3 d10 k3, PS), for which the target mRNA inhibition is 67% (A431, 0.0625 µM); 90% (A431, 0.25 µM); 98% (A431, 1 µM).

For “GAGTATTGTTTTTGTG (sugars k3 d5 k3 d5, PS)”, the target mRNA inhibition reads like this: (A431, 0.0156 µM) 37%; (A431, 0.0625 µM) 74% and 66%; (A431, 0.25 µM) 91% and 88%; (A431, 1 µM) 95% and 94%; (A431, 2 µM) 93% and 94%.

“GAATTATGGAATTGCA (sugars kkddddkekekkdddd, PS)” registered a target mRNA inhibition (A431, 2 µM) of 61%.

Take “GCTAATTTTCTGACTG (sugars kkddddkekekkdddd, PS)”: for the setting “A431, 2 µM”, the target mRNA inhibition amounted to 71%.

“AAGATTGGCTCTGGCT (sugars kkddddekekeddddd, PS)” showed a target mRNA inhibition (A431, 2 µM) of 66%.

TGGGCGAGCGATTGTC (sugars k4 d9 k3, PS): the target mRNA inhibition by setting is: (A431, 0.0625 µM) 42%; (A431, 0.25 µM) 70%; (A431, 1 µM) 83%.

In the case of “CCGTCAATATATTCTT (sugars k3 d4 k3 e1 d5, PS)”, the target mRNA inhibition is, setting by setting: (A431, 0.0156 µM) 36%; (A431, 0.0625 µM) 70%; (A431, 0.25 µM) 92%; (A431, 1 µM) 96%; (A431, 2 µM) 98%.

For “TGTAAGTGCAACCAAT (sugars kkddddkekekkdddd, PS)”, under “A431, 2 µM”, the target mRNA inhibition worked out at 43%.

As for “TATTTCTTGATGTGGT (sugars kkkddddkekekdddd, PS)”, the target mRNA inhibition (A431, 0.0156 µM) was 17%; the target mRNA inhibition (A431, 0.0625 µM) was 61%; the target mRNA inhibition (A431, 0.25 µM) came to 80%; the target mRNA inhibition (A431, 1 µM) turned out to be 89%; the target mRNA inhibition (A431, 2 µM) was 95%.

Regarding TGAACGCAATGCTGAC (sugars k4 d9 k3, PS), the target mRNA inhibition came to 32% (A431, 0.0625 µM); 74% (A431, 0.25 µM); 90% (A431, 1 µM).

In turn, GTCATTAGTGCTATAG (sugars k4 d9 k3, PS) returned a target mRNA inhibition (A431, 0.0625 µM) of 68%; a target mRNA inhibition (A431, 0.25 µM) of 87%; a target mRNA inhibition (A431, 1 µM) of 93%.

“GCATTCAGAATTTCCA (sugars k3 d4 k3 e1 d5, PS)” returned a target mRNA inhibition (A431, 0.0156 µM) of 33%; a target mRNA inhibition (A431, 0.0625 µM) of 73%; a target mRNA inhibition (A431, 0.25 µM) of 90%; a target mRNA inhibition (A431, 1 µM) of 92%; a target mRNA inhibition (A431, 2 µM) of 95%.

“TTGTAAGTGCAACCAA (sugars k2 d4 e3 k2 d5, PS)”: the target mRNA inhibition (A431, 2 µM) was 83%.

Turning to “GTTATGAAATTATTGG (sugars kkkddddkekeddddd, PS)”, the target mRNA inhibition came to 9% (A431, 0.0156 µM); 42% (A431, 0.0625 µM); 75% (A431, 0.25 µM); 85% (A431, 1 µM); 93% (A431, 2 µM).

As for “ATTCAGAATTTCCACT (sugars kkddddkekekkdddd, PS)”, where the note is “A431, 2 µM”, the target mRNA inhibition stood at 57%.

“ATATCAGATGGGTACT (sugars kkddddekekeddddd, PS)”: for the setting “A431, 2 µM”, the target mRNA inhibition stood at 27%.

With “GTATTTCTTGATGTGG (sugars kkddddkekekkdddd, PS)”, the target mRNA inhibition (A431, 2 µM) turned out to be 52%.

Under “A431, 2 µM”, “TTTGTAAGTGCAACCA (sugars k3 d4 k3 e1 d5, PS)” gave a target mRNA inhibition of 56%.

Turning to “AAGCTTTAAACTCAGG (sugars k3 d4 k3 e1 d5, PS)”, for the setting “A431, 2 µM”, the target mRNA inhibition was determined as 72%.

“TTATATTTGATCCTCA (sugars kkddddkekekddddd, PS)”: for the setting “A431, 2 µM”, the target mRNA inhibition was 91%.

“ACACATCATTGGGTTA (sugars kkkddddkdkdkdddd, PS)”: under “A431, 2 µM”, the target mRNA inhibition was found to be 48%.

“TCTCATGGTACAGGAG (sugars kdddddkekekddddd, PS)” gave a target mRNA inhibition (A431, 2 µM) of 61%.

For the setting “A431, 2 µM”, “TTCTATTAGAGGGCTA (sugars k2 d4 e4 k2 d4, PS)” yielded a target mRNA inhibition of 76%.

Take TTCTATTGGGCCTCAG (sugars k4 d9 k3, PS): the target mRNA inhibition by setting is: (A431, 0.0625 µM) 74%; (A431, 0.25 µM) 87%; (A431, 1 µM) 94%.

On to TGATGTGGGACTTGTT (sugars k4 d9 k3, PS), for which the target mRNA inhibition was 61% (A431, 0.0625 µM); 84% (A431, 0.25 µM); 93% (A431, 1 µM).

In turn, “TATCAGATGGGTACTT (sugars kkkddddkekeddddd, PS)” came in with a target mRNA inhibition (A431, 2 µM) of 37%.

The sequence “CTTTATACCAGTGTCT (sugars kkddddkekekddddd, PS)” had a target mRNA inhibition (A431, 2 µM) of 86%.

The sequence “GTTCAAAAGCAGCATT (sugars kkddddkdkdkddddd, PS)” registered a target mRNA inhibition (A431, 2 µM) of 73%.

As for “TCAGATGGGTACTTCT (sugars kkddddkdkdkddddd, PS)”, the target mRNA inhibition (A431, 2 µM) turned out to be 88%.

As for GGCAAGGCTAAGTTCC (sugars k4 d9 k3, PS), the target mRNA inhibition runs as follows: (A431, 0.0625 µM) 41%; (A431, 0.25 µM) 75%; (A431, 1 µM) 84%.

The sequence “CTAATTTTCTGACTGT (sugars kkddddekekeddddd, PS)” displayed a target mRNA inhibition (A431, 2 µM) of 90%.

For the setting “A431, 2 µM”, “AGTATTGCCAGCTAAG (sugars k2 d4 e4 k2 d4, PS)” came in with a target mRNA inhibition of 59%.

For the setting “A431, 2 µM”, “GGCAGTTTTGTAAGTG (sugars kkkddddkekekdddd, PS)” yielded a target mRNA inhibition of 32%.

The sequence “GCTAATTTTCTGACTG (sugars kekddddeekkddddd, PS)” had a target mRNA inhibition (A431, 0.0156 µM) of 13%; a target mRNA inhibition (A431, 0.0625 µM) of 42%; a target mRNA inhibition (A431, 0.25 µM) of 69%; a target mRNA inhibition (A431, 1 µM) of 87%; a target mRNA inhibition (A431, 2 µM) of 94%.

As for “AAGTATTGCCAGCTAA (sugars kdddddkekekddddd, PS)”, the target mRNA inhibition (A431, 2 µM) was found to be 54%.

For “CAGTTTTGTAAGTGCA (sugars k2 d4 e3 k2 d5, PS)”, for the setting “A431, 2 µM”, the target mRNA inhibition came to 92%.

The sequence “CTAATTTTCTGACTGT (sugars kkkddddkekekdddd, PS)” came in with a target mRNA inhibition (A431, 2 µM) of 90%.

Where the note is “A431, 2 µM”, “TGTTATATTTGATCCT (sugars kkkddddkekeddddd, PS)” had a target mRNA inhibition of 71%.

Take “CAACACATCATTGGGT (sugars kkddddkekekddddd, PS)”: under “A431, 2 µM”, the target mRNA inhibition was determined as 43%.

Regarding “TTCTCATGGTACAGGA (sugars kkdddddkekeddddd, PS)”, the target mRNA inhibition (A431, 2 µM) was 78%.

Take CACAGCATTGAGTACA (sugars k4 d9 k3, PS): the target mRNA inhibition reads like this: (A431, 0.0625 µM) 44%; (A431, 0.25 µM) 66%; (A431, 1 µM) 86%.

“GTTCAAAAGCAGCATT (sugars kkdddddkekeddddd, PS)”: where the note is “A431, 2 µM”, the target mRNA inhibition was 89%.

In turn, “AGTATTGCCAGCTAAG (sugars k3 d4 k3 e1 d5, PS)” registered a target mRNA inhibition (A431, 2 µM) of 89%.

With TCAGTCAGCAGGAGTA (sugars k4 d9 k3, PS), the target mRNA inhibition is, setting by setting: (A431, 0.0625 µM) 55%; (A431, 0.25 µM) 69%; (A431, 1 µM) 70%.

Consider “ACATCATTGGGTTATG (sugars kddddkekekeddddd, PS)”, for which, where the note is “A431, 2 µM”, the target mRNA inhibition worked out at 76%.

Sequence “ACTTTATACCAGTGTC (sugars kkkddddkekeddddd, PS)” gave a target mRNA inhibition (A431, 2 µM) of 65%.

“GCAATGCTGACTTGGC (sugars kdddddkekekddddd, PS)”: under “A431, 2 µM”, the target mRNA inhibition amounted to 85%.
